Among the test systems are BT-549 breast; CAKI-1 renal; HOP-92 NSCLC; HS 578T breast; IGROV1 ovarian; MCF7 breast; MDA-MB-231 breast; MOLT-4 leukemia; SK-MEL-28 melanoma; SN12C renal.
Common to all, as to assay: inhibition of tumour cell growth, NCI panel, 48 h

The structures appear in SMILES notation.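 48-hour exposure; five concentrations; linearly interpolated endpoints. Here, GI50 denotes the concentration required for 50% inhibition of growth. TGI is the concentration that stops growth completely.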

As for `COC(=O)c1cc2oc(/C=C3/SC(=S)N(N)C3=O)cc2n1Cc1ccccc1`, the GI50 in the experiment on BT-549 breast is 3.5 µM; in the experiment with CAKI-1 renal it was 2.98 µM; with HOP-92 NSCLC it was 1.47 µM; in the experiment on HS 578T breast it was 0.699 µM; in the experiment on IGROV1 ovarian it was 1.35 µM; in the experiment with MCF7 breast it was 1.5 µM. Also, the GI50 was 8.66 µM with MDA-MB-231 breast, 4.23 µM with MOLT-4 leukemia, 7.48 µM with SK-MEL-28 melanoma and 12 µM in the experiment with SN12C renal. In addition, the TGI in the experiment with BT-549 breast turned out to be 26.7 µM; in the experiment with CAKI-1 renal, 20.6 µM; in the experiment with HOP-92 NSCLC, 12.8 µM; with HS 578T breast, 3.5 µM; in the experiment with IGROV1 ovarian it was 4.82 µM; in the experiment on MCF7 breast, 6.93 µM. For the same molecule, the TGI is 26 µM in the experiment with MDA-MB-231 breast, above 100 µM in the experiment on MOLT-4 leukemia, above 30.1 µM in the experiment on SK-MEL-28 melanoma and above 43.3 µM in the experiment on SN12C renal.
With `C#Cc1cccc(Nc2ncnc3ccc(OCCCCNCCS(C)(=O)=O)cc23)c1`, the GI50 in the experiment on BT-549 breast was 8.33 µM; in the experiment with CAKI-1 renal, 2.79 µM; in the experiment on HOP-92 NSCLC it was 1.68 µM; in the experiment on HS 578T breast, 8.66 µM; with IGROV1 ovarian, 2.12 µM; with MCF7 breast, 9.5 µM. Further, the GI50 with MDA-MB-231 breast was 5.11 µM; in the experiment with MOLT-4 leukemia, 7.97 µM; in the experiment with SK-MEL-28 melanoma, 4.58 µM; in the experiment on SN12C renal it was 5.89 µM. The TGI in the experiment with BT-549 breast was above 25 µM; in the experiment on CAKI-1 renal it was above 25 µM; with HOP-92 NSCLC, 14.4 µM; in the experiment on HS 578T breast it was above 23.2 µM; in the experiment on IGROV1 ovarian, above 16.3 µM; in the experiment on MCF7 breast, above 25 µM. Also, the TGI is 11.7 µM with MDA-MB-231 breast, 21.4 µM with MOLT-4 leukemia, 8.56 µM in the experiment on SK-MEL-28 melanoma and above 25 µM in the experiment on SN12C renal.
Regarding `COc1c(/C=C/C=O)cc2c(c1OC)OCO2`, the TGI is above 100 µM in the experiment on BT-549 breast; 29.1 µM with CAKI-1 renal; above 100 µM with HOP-92 NSCLC; above 100 µM in the experiment with HS 578T breast; 82.4 µM in the experiment with IGROV1 ovarian; above 100 µM with MCF7 breast. Also, the TGI in the experiment on MDA-MB-231 breast is 80 µM; with MOLT-4 leukemia, 49.6 µM; in the experiment on SK-MEL-28 melanoma, above 100 µM; in the experiment on SN12C renal it was 59.3 µM.
With `CC(C)[C@@](O)(c1ccc2cc(OC(F)F)c(OC(F)F)cc2c1)c1cn[nH]n1`, the GI50 with BT-549 breast is 15.2 µM; in the experiment on CAKI-1 renal it was 14.6 µM; in the experiment with HOP-92 NSCLC, 13.8 µM; in the experiment on HS 578T breast it was 21.1 µM; in the experiment with IGROV1 ovarian, 18.7 µM; in the experiment on MCF7 breast, 16.6 µM. Moreover, the GI50 is 18.5 µM in the experiment on MDA-MB-231 breast, 21.7 µM in the experiment with MOLT-4 leukemia, 17.1 µM with SK-MEL-28 melanoma and 17.1 µM with SN12C renal. Also, the TGI with BT-549 breast worked out at 29.5 µM; in the experiment with CAKI-1 renal, 38.2 µM; with HOP-92 NSCLC it was 30.2 µM; in the experiment with HS 578T breast, 73.7 µM; in the experiment with IGROV1 ovarian it was 63.8 µM; in the experiment on MCF7 breast it was 37.7 µM. The TGI was 39.1 µM in the experiment with MDA-MB-231 breast, 70.7 µM with MOLT-4 leukemia, 33.9 µM in the experiment on SK-MEL-28 melanoma and 35.2 µM with SN12C renal.
With `C=CC(=O)N1C[C@@H]2CCOc3c(Cl)c(-c4c(O)cccc4F)c(F)c4ncnc(c34)N2C[C@H]1C`, the GI50 with BT-549 breast was 2.48 µM; in the experiment with CAKI-1 renal, 2.67 µM; in the experiment on HOP-92 NSCLC it was 17 µM; in the experiment on HS 578T breast it was 16.5 µM; with IGROV1 ovarian it was 17.4 µM; in the experiment with MCF7 breast, 14.1 µM. The GI50 in the experiment with MDA-MB-231 breast is 11.5 µM; with MOLT-4 leukemia it was 5.79 µM; in the experiment with SK-MEL-28 melanoma, 13.5 µM; in the experiment on SN12C renal it was 13 µM. Further, the TGI in the experiment on BT-549 breast amounted to 12.9 µM; in the experiment on CAKI-1 renal it was 19.4 µM; with HOP-92 NSCLC, 39 µM; in the experiment with HS 578T breast it was 89.2 µM; in the experiment on IGROV1 ovarian it was 46.6 µM; in the experiment with MCF7 breast it was 34.5 µM. The TGI in the experiment with MDA-MB-231 breast is 27.7 µM; in the experiment on MOLT-4 leukemia it was above 100 µM; in the experiment with SK-MEL-28 melanoma, 27.1 µM; in the experiment with SN12C renal, 31.3 µM.
For `COc1cc([N+](=O)[O-])c(OC)cc1-c1nc2sc(C)cn2c1/C(N)=N/C(=N)N`, the GI50 was 29.8 µM with BT-549 breast; above 100 µM in the experiment with CAKI-1 renal; 24.1 µM in the experiment on HOP-92 NSCLC; 25.2 µM in the experiment on HS 578T breast; 32.9 µM in the experiment on IGROV1 ovarian; 3.92 µM in the experiment on MCF7 breast. Besides, the GI50 in the experiment with MDA-MB-231 breast is 16.1 µM; with MOLT-4 leukemia, above 100 µM; with SK-MEL-28 melanoma it was 7.02 µM; with SN12C renal it was 18.9 µM. The TGI in the experiment on BT-549 breast is above 100 µM; in the experiment on CAKI-1 renal, above 100 µM; in the experiment on HOP-92 NSCLC it was 88.3 µM; in the experiment on HS 578T breast, 89.2 µM; with IGROV1 ovarian, above 100 µM; in the experiment with MCF7 breast it was above 100 µM. Besides, the TGI was 45.1 µM in the experiment on MDA-MB-231 breast, above 100 µM with MOLT-4 leukemia, above 100 µM in the experiment with SK-MEL-28 melanoma and 49.1 µM in the experiment on SN12C renal.
On to `O=c1cnnc(N/N=C/c2ccccc2O)[nH]1`, for which the GI50 in the experiment with BT-549 breast is 6.36 µM; with CAKI-1 renal, 3.01 µM; with HOP-92 NSCLC it was 4.75 µM; with HS 578T breast, 28.2 µM; in the experiment on IGROV1 ovarian, 3.2 µM; with MCF7 breast, 0.0396 µM. The GI50 in the experiment with MDA-MB-231 breast is 4.37 µM; in the experiment on MOLT-4 leukemia, 0.973 µM; in the experiment on SK-MEL-28 melanoma it was 4.54 µM; with SN12C renal, 4.21 µM. In addition, the TGI was above 100 µM with BT-549 breast; above 100 µM in the experiment with CAKI-1 renal; above 100 µM with HOP-92 NSCLC; above 100 µM in the experiment with HS 578T breast; 16.7 µM with IGROV1 ovarian; above 100 µM in the experiment with MDA-MB-231 breast. The TGI with MOLT-4 leukemia is above 100 µM; in the experiment with SK-MEL-28 melanoma it was 53.2 µM; in the experiment on SN12C renal it was above 100 µM.
In the case of `CCOC(=O)C1=C(C)NC(=O)NC1CN1C(=O)c2ccccc2C1=O` (centres undefined), the GI50 in the experiment with BT-549 breast, in the experiment on CAKI-1 renal, with HOP-92 NSCLC, in the experiment on HS 578T breast, in the experiment with IGROV1 ovarian and with MCF7 breast was above 100 µM each time. Besides, the GI50 in the experiment on MDA-MB-231 breast, with MOLT-4 leukemia, in the experiment with SK-MEL-28 melanoma and in the experiment with SN12C renal was above 100 µM each time. The TGI in the experiment on BT-549 breast, in the experiment on CAKI-1 renal, with HOP-92 NSCLC, in the experiment with HS 578T breast, in the experiment on IGROV1 ovarian and in the experiment on MCF7 breast was above 100 µM throughout. Also, the TGI in the experiment with MDA-MB-231 breast, with MOLT-4 leukemia, with SK-MEL-28 melanoma and with SN12C renal was above 100 µM throughout.
For the molecule `CN(C)CC(=O)Nc1ccc2ncnc(Nc3ccc(Oc4cccc(C(F)(F)F)c4)c(Cl)c3)c2c1`, the GI50 with BT-549 breast was 3.91 µM; with CAKI-1 renal it was 1.71 µM; with HOP-92 NSCLC, 1.27 µM; in the experiment on HS 578T breast it was 1.78 µM; with IGROV1 ovarian, 1.17 µM; in the experiment on MCF7 breast, 1.53 µM. Further, the GI50 was 1.54 µM in the experiment on MDA-MB-231 breast, 2.14 µM with MOLT-4 leukemia, 1.74 µM with SK-MEL-28 melanoma and 2.85 µM with SN12C renal. The TGI stood at 17.3 µM in the experiment with BT-549 breast; 7.54 µM in the experiment with CAKI-1 renal; 3.55 µM in the experiment with HOP-92 NSCLC; 4.58 µM with HS 578T breast; 3.03 µM with IGROV1 ovarian; 3.02 µM with MCF7 breast. In addition, the TGI in the experiment on MDA-MB-231 breast came to 3.29 µM; with MOLT-4 leukemia, 6.36 µM; in the experiment with SK-MEL-28 melanoma, 3.22 µM; with SN12C renal, 10.5 µM.
Take `O=C(c1ccccc1Cl)n1oc2ccccc2c1=O`: the TGI in the experiment on BT-549 breast, with CAKI-1 renal, with HOP-92 NSCLC, with HS 578T breast, with IGROV1 ovarian and with MCF7 breast was above 100 µM each time. For the same molecule, the TGI in the experiment on MDA-MB-231 breast is above 100 µM; with MOLT-4 leukemia, 51.3 µM; in the experiment with SK-MEL-28 melanoma, above 100 µM; with SN12C renal it was above 100 µM.
As for `CC1=C(C)C(=O)O[C@@H]([C@](C)(O)[C@]2(O)CC[C@@]3(O)[C@@H]4C[C@H](O)[C@]5(O)[C@@H](O)C=CC(=O)[C@]5(C)[C@H]4CC[C@]23C)C1`, the TGI in the experiment on BT-549 breast, in the experiment on CAKI-1 renal, in the experiment with HOP-92 NSCLC, in the experiment on HS 578T breast, in the experiment on IGROV1 ovarian and in the experiment on MCF7 breast was above 100 µM each time. Also, the TGI in the experiment on MDA-MB-231 breast, with MOLT-4 leukemia, in the experiment with SK-MEL-28 melanoma and in the experiment with SN12C renal was above 100 µM each time.
On to `O=Nc1c(-c2c(O)[nH]c3cc(Br)ccc23)[nH]c2ccccc12`, for which the GI50 with BT-549 breast is 0.716 µM; with CAKI-1 renal, 0.109 µM; in the experiment on HOP-92 NSCLC, 1.97 µM; in the experiment with HS 578T breast it was 0.239 µM; with IGROV1 ovarian, 0.14 µM; in the experiment with MCF7 breast, 1.83 µM. In addition, the GI50 in the experiment with MDA-MB-231 breast is 1.82 µM; in the experiment with MOLT-4 leukemia, 2.99 µM; in the experiment with SK-MEL-28 melanoma, 2.37 µM; in the experiment on SN12C renal it was 0.785 µM. In addition, the TGI in the experiment with BT-549 breast stood at 2.79 µM; in the experiment with CAKI-1 renal, 1.45 µM; in the experiment on HOP-92 NSCLC, 7.29 µM; in the experiment with HS 578T breast, 7.14 µM; in the experiment with IGROV1 ovarian, 2.1 µM; in the experiment on MCF7 breast, 7.79 µM. The TGI was 5.31 µM in the experiment with MDA-MB-231 breast, above 100 µM in the experiment on MOLT-4 leukemia, 4.79 µM in the experiment with SK-MEL-28 melanoma and 3.86 µM in the experiment on SN12C renal.

Values taken from PubChem BioAssay (NCI).
